Results on eight compounds are retold here after patent publication US20250179073A1, “TRICYCLIC HETEROCYCLE COMPOUNDS AS IAP ANTAGONISTS” (Ascentage Pharma (Suzhou) Co., Ltd., priority 2022, published 2025).

This assay deals with MDA-MB-231 cells. In words: Cell proliferation assay (CellTiter-Glo), MDA-MB-231. The assay is classed as cell-based. To be noted: Homo sapiens, MDA-MB-231, 72 h, 72 h treatment, Celltiter-Glo luminescence. A digest of the protocol:
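MDA-MB-231 (RPMI-1640/10% FBS) and EVSA-T (MEM/10% FBS) cells, 10000 cells/well, exposed 72 h to compound at […]. Viability read by CellTiter-Glo luminescence after 15 min at room temperature. IC50 from control-normalised curve fitting.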
For orientation: ATP-based viability assays read luminescence as a measure of living cells.

One may read the IC50 as the concentration that inhibits the measured activity by half. As for `CCOC(=O)c1cnn2c3c(cc(Cc4ccc(F)cc4)c12)N(C(=O)CN1C[C@@H](C)NC[C@@H]1CN1CCOC[C@H]1C)CC3(C)C` [Compound 120, ethyl 4-(4-fluorobenzyl)-8,8-dimethyl-6-(2-((2R,5R)-5-methyl-2-(((R)-3-methylmorpholino)methyl)piperazin-1-yl)acetyl)-7,8-dihydro-6H-pyrazolo[1,5-a]pyrrolo[2,3-e]pyridine-3-carboxylate], the half-maximal inhibitory concentration (IC50) was found to be 0.4 µM.

For `CC(C)c1ncc2c(Cc3ccc(F)cc3)cc3c(n12)C(C)(C)CN3C(=O)CN1C[C@@H](C)NC[C@@H]1CN1CCOC[C@H]1C` [Example 5, 1-(4-(4-fluorobenzyl)-1-isopropyl-8,8-dimethyl-7,8-dihydro-6H-imidazo[1,5-a]pyrrolo[2,3-e]pyridin-6-yl)-2-((2R,5R)-5-methyl-2-(((R)-3-methylmorpholino)methyl)piperazin-1-yl)ethan-1-one], the half-inhibitory concentration (IC50) was determined as 0.16 µM.

As for `C[C@@H]1CN(CC(=O)N2CC(C)(C)c3c2cc(Cc2ccc(F)cc2)c2nc(=O)n(C)n32)[C@@H](CN2CCOC[C@H]2C)CN1` [compound 127, 4-(4-fluorobenzyl)-1,8,8-trimethyl-6-(2-((2R,5R)-5-methyl-2-(((R)-3-methylmorpholino)methyl)piperazin-1-yl)acetyl)-7,8-dihydro-1H-pyrrolo[2,3-e][1,2,4]triazolo[1,5-a]pyridin-2(6H)-one], the IC50 was 3.08 µM.

For `C[C@@H]1CN(CC(=O)N2CC(C)(C)c3c2cc(Cc2ccc(F)cc2)c2nc(=O)[nH]n32)[C@@H](CN2CCOC[C@H]2C)CN1` [Compound 131, 4-(4-fluorobenzyl)-8,8-dimethyl-6-(2-((2R,5R)-5-methyl-2-(((R)-3-methylmorpholino)methyl)piperazin-1-yl)acetyl)-7,8-dihydro-1H-pyrrolo[2,3-e][1,2,4]triazolo[1,5-a]pyridin-2(6H)-one], the concentration for half-maximal inhibition (IC50) worked out at 2.74 µM.

As to `CC(=O)N1CCN(C[C@H]2CN[C@H](C)CN2CC(=O)N2CC(C)(C)c3c2cc(Cc2ccc(F)cc2)c2nn(CC(C)(C)O)c(=O)n32)[C@H](C)C1` [Compound 282, 6-(2-((2R,5R)-2-(((R)-4-acetyl-2-methylpiperazin-1-yl)methyl)-5-methylpiperazin-1-yl)acetyl)-4-(4-fluorobenzyl)-2-(2-hydroxy-2-methylpropyl)-8,8-dimethyl-2,6,7,8-tetrahydro-1H-pyrrolo[2,3-e][1,2,4]triazolo[4,3-a]pyridin-1-one], the IC50 is 0.66 µM.

For the compound `C[C@@H]1CN(CC(=O)N2CC(C)(C)c3c2cc(Cc2ccc(F)cc2)c2ncsc32)[C@@H](CN2CCOC[C@H]2C)CN1` [Example 27, 1-(4-(4-fluorobenzyl)-8,8-dimethyl-7,8-dihydro-6H-thiazolo[5,4-e]indol-6-yl)-2-((2R,5R)-5-methyl-2-(((R)-3-methylmorpholino)methyl)piperazin-1-yl)ethan-1-one], the IC50 was 0.26 µM.

As to `C[C@@H]1CN(CC(=O)N2CC(C)(C)c3c2cc(Cc2ccc(F)cc2)c2nc(P(C)(C)=O)nn32)[C@@H](CN2CCOC[C@H]2C)CN1` [Compound 209, 1-(2-(dimethylphosphoryl)-4-(4-fluorobenzyl)-8,8-dimethyl-7,8-dihydro-6H-pyrrolo[2,3-e][1,2,4]triazolo[1,5-a]pyridin-6-yl)-2-((2R,5R)-5-methyl-2-(((R)-3-methylmorpholino)methyl)piperazin-1-yl)ethan-1-one], the IC50 came to 2.16 µM.

On to `C[C@@H]1CN(CC(=O)N2CC(C)(C)c3c2cc(Cn2ccc(F)cc2=O)c2ncnn32)[C@@H](CN2CCOC[C@H]2C)CN1` [Compound 151, 1-((8,8-dimethyl-6-(2-((2R,5R)-5-methyl-2-(((R)-3-methylmorpholino)methyl)piperazin-1-yl)acetyl)-7,8-dihydro-6H-pyrrolo[2,3-e][1,2,4]triazolo[1,5-a]pyridin-4-yl)methyl)-4-fluoropyridin-2(1H)-one], for which the IC50 was 3.8 µM.
